Results as given in US10376520B2, “Methods for the treatment of cardiovascular disorders” (Galapagos NV, priority 2015, dated 2019).

System: RA patients
Test: Total cholesterol determination, Study 1 (RA patients with inadequate response to methotrexate, add-on to MTX)
Assay type: in vivo, human
Settings: for [total cholesterol] Mean CFB / [Total cholesterol] Median CFB: Study 1 24 weeks results; for [total cholesterol] Mean percentage CFB - 24 weeks results: continued 25 mg b.i.d (N = 69)
Procedure: Double-blind, placebo-controlled add on study in subjects with moderately to severely active RA who have an inadequate response to methotrexate (MTX) (oral or parenteral).
595 subjects randomized to one of 6 dose regimens of Compound 1 (dosed as a [Compound 1:HCl:3H2O]) (3 dose levels administered either once or twice daily) or placebo on top of each subject's stable dose of MTX.
Compound 1 (dosed as a [Compound 1:HCl:3H2O]) is dosed for twelve weeks once daily (q.d.) (50 mg, 100 mg or 200 mg) or twice daily (b.i.d.) (25 mg, 50 mg or 100 mg); or placebo.
At Week 12, the subjects on placebo who have not achieved 20% improvement in swollen joint count (SJC66) and tender joint count (TJC68) are re-randomized automatically to receive Compound 1 (dosed as a [Compound 1:HCl:3H2O]) either at 100 mg q.d. or 50 mg b.i.d. doses in a blinded fashion; subjects on 50 mg q.d. who have not achieved 20% improvement in SJC66 and TJC68 will be assigned to 100 mg q.d. and subjects on 25 mg b.i.d. that have not achieved a 20% improvement in SJC66 and TJC68 will be assigned to 50 mg b.i.d. Subjects who switch treatment at week 12 are handled as if they discontinued at week 12 for the purpose of statistical analysis, whereas subjects in the other groups will maintain their randomized treatment until Week 24.
This method is based on the determination of Δ^4 cholestenone after enzymatic cleavage of the cholesterol ester by cholesterol esterase, conversion of cholesterol by cholesterol oxidase, and subsequent measurement by the Trinder reaction of the hydrogen peroxide formed (Allain et al., 1974).
Cholesterol esters are cleaved by the action of cholesterol esterase to yield free cholesterol and fatty acids. Cholesterol oxidase then catalyzes the oxidation of cholesterol to cholest-4-en-3-one and hydrogen peroxide. In the presence of peroxidase, the hydrogen peroxide formed effects the oxidative coupling of phenol and 4-aminophenazone to form a red quinone-imine dye. The color intensity of the dye formed is directly proportional to the cholesterol concentration. It is determined by measuring the increase in absorbance.
Human serum and plasma samples cholesterol determination was done on a Roche/Hitachi Cobas c 701/702 system which automatically calculate the analyte concentration of each sample.

[1] = placebo switched to 50 mg b.i.d at week 12, week 16
[2] = placebo switched to 50 mg b.i.d at week 12, week 20
[3] = placebo switched to 50 mg b.i.d at week 12, week 24

## O=C(Nc1nc2cccc(-c3ccc(CN4CCS(=O)(=O)CC4)cc3)n2n1)C1CC1 [Compound 1, cyclopropanecarboxylic acid {5-[4-(1,1-dioxo-thiomorpholin-4-ylmethyl)-phenyl]-[1,2,4]triazolo[1,5-a]pyridin-2yl}-amide]
Continued 100 mg b.i.d., week 2
  [total cholesterol] Mean CFB: 0.36 mmol/L
Continued 100 mg b.i.d., week 4
  [total cholesterol] Mean CFB: 0.43 mmol/L
Continued 100 mg b.i.d., week 8
  [total cholesterol] Mean CFB: 0.64 mmol/L
Continued 100 mg b.i.d., week 12
  [total cholesterol] Mean CFB: 0.64 mmol/L
Continued 100 mg b.i.d., week 16
  [total cholesterol] Mean CFB: 0.56 mmol/L
Continued 100 mg b.i.d., week 20
  [total cholesterol] Mean CFB: 0.54 mmol/L
Continued 100 mg b.i.d., week 24
  [total cholesterol] Mean CFB: 0.66 mmol/L
Continued 100 mg q.d., week 1
  [Total cholesterol] Median CFB: 0.14 mmol/L
  [total cholesterol] Mean CFB: 0.15 mmol/L
Continued 100 mg q.d., week 2
  [Total cholesterol] Median CFB: 0.06 mmol/L
  [total cholesterol] Mean CFB: 0.10 mmol/L
Continued 100 mg q.d., week 4
  [Total cholesterol] Median CFB: 0.25 mmol/L
  [total cholesterol] Mean CFB: 0.23 mmol/L
Continued 100 mg q.d., week 8
  [Total cholesterol] Median CFB: 0.09 mmol/L
  [total cholesterol] Mean CFB: 0.14 mmol/L
Continued 100 mg q.d., week 12
  [Total cholesterol] Median CFB: 0.30 mmol/L
  [total cholesterol] Mean CFB: 0.23 mmol/L
Continued 100 mg q.d., week 16
  [Total cholesterol] Median CFB: 0.00 mmol/L
  [total cholesterol] Mean CFB: 0.06 mmol/L
Continued 100 mg q.d., week 20
  [Total cholesterol] Median CFB: 0.17 mmol/L
  [total cholesterol] Mean CFB: 0.13 mmol/L
Continued 100 mg q.d., week 24
  [Total cholesterol] Median CFB: 0.30 mmol/L
  [total cholesterol] Mean CFB: 0.21 mmol/L
Continued 200 mg q.d., week 1
  [total cholesterol] Mean CFB: 0.26 mmol/L
Continued 200 mg q.d., week 2
  [total cholesterol] Mean CFB: 0.29 mmol/L
Continued 200 mg q.d., week 4
  [total cholesterol] Mean CFB: 0.37 mmol/L
Continued 200 mg q.d., week 8
  [total cholesterol] Mean CFB: 0.44 mmol/L
Continued 200 mg q.d., week 12
  [total cholesterol] Mean CFB: 0.46 mmol/L
Continued 200 mg q.d., week 16
  [total cholesterol] Mean CFB: 0.37 mmol/L
Continued 200 mg q.d., week 20
  [total cholesterol] Mean CFB: 0.43 mmol/L
Continued 200 mg q.d., week 24
  [Total cholesterol] Median CFB: 0.37 mmol/L
  [total cholesterol] Mean CFB: 0.39 mmol/L
Increased from 25 mg b.i.d. to 50 mg b.i.d at 12 weeks, week 1
  [total cholesterol] Mean CFB: -0.05 mmol/L
Increased from 25 mg b.i.d. to 50 mg b.i.d at 12 weeks, week 2
  [total cholesterol] Mean CFB: -0.01 mmol/L
Increased from 25 mg b.i.d. to 50 mg b.i.d at 12 weeks, week 4
  [total cholesterol] Mean CFB: -0.26 mmol/L
Increased from 25 mg b.i.d. to 50 mg b.i.d at 12 weeks, week 8
  [total cholesterol] Mean CFB: -0.30 mmol/L
Increased from 25 mg b.i.d. to 50 mg b.i.d at 12 weeks, week 12
  [total cholesterol] Mean CFB: -0.13 mmol/L
Increased from 25 mg b.i.d. to 50 mg b.i.d at 12 weeks, week 16
  [total cholesterol] Mean CFB: 0.08 mmol/L
Increased from 25 mg b.i.d. to 50 mg b.i.d at 12 weeks, week 20
  [total cholesterol] Mean CFB: -0.44 mmol/L
Increased from 25 mg b.i.d. to 50 mg b.i.d at 12 weeks, week 24
  [total cholesterol] Mean CFB: -0.09 mmol/L
Increased from 50 mg q.d. to 100 mg q.d. at 12 weeks, week 1
  [total cholesterol] Mean CFB: 0.05 mmol/L
Increased from 50 mg q.d. to 100 mg q.d. at 12 weeks, week 2
  [total cholesterol] Mean CFB: 0.26 mmol/L
Increased from 50 mg q.d. to 100 mg q.d. at 12 weeks, week 4
  [total cholesterol] Mean CFB: 0.11 mmol/L
Increased from 50 mg q.d. to 100 mg q.d. at 12 weeks, week 8
  [total cholesterol] Mean CFB: 0.10 mmol/L
Increased from 50 mg q.d. to 100 mg q.d. at 12 weeks, week 12
  [total cholesterol] Mean CFB: 0.10 mmol/L
Increased from 50 mg q.d. to 100 mg q.d. at 12 weeks, week 16
  [total cholesterol] Mean CFB: 0.37 mmol/L
Increased from 50 mg q.d. to 100 mg q.d. at 12 weeks, week 20
  [total cholesterol] Mean CFB: 0.34 mmol/L
Increased from 50 mg q.d. to 100 mg q.d. at 12 weeks, week 24
  [total cholesterol] Mean CFB: 0.25 mmol/L
[1]
  [Total cholesterol] Median CFB: 0.25 mmol/L
  [total cholesterol] Mean CFB: 0.08 mmol/L
[2]
  [Total cholesterol] Median CFB: 0.25 mmol/L
  [total cholesterol] Mean CFB: 0.18 mmol/L
[3]
  [Total cholesterol] Median CFB: 0.36 mmol/L
  [total cholesterol] Mean CFB: 0.06 mmol/L
Placebo switched to 100 mg q.d. at week 12, week 16
  [total cholesterol] Mean CFB: -0.16 mmol/L
Placebo switched to 100 mg q.d. at week 12, week 20
  [total cholesterol] Mean CFB: -0.17 mmol/L
Placebo switched to 100 mg q.d. at week 12, week 24
  [total cholesterol] Mean CFB: -0.26 mmol/L
Week 1
  [total cholesterol] Mean percentage CFB - 24 weeks results: 2.56%
Week 2
  [total cholesterol] Mean percentage CFB - 24 weeks results: 3.22%
Week 4
  [total cholesterol] Mean percentage CFB - 24 weeks results: 4.05%
Week 8
  [total cholesterol] Mean percentage CFB - 24 weeks results: 4.25%
